Laboratory results published in patent US20240173231A1, “COSMETIC SKIN CARE COMPOSITION” (Conopco, Inc., d/b/a UNILEVER, priority 2021, published 2024).
Marks after values point to notes of the source that are not given here.

Assays:
Assay type in all cases: cell-based, human
YAP/TAZ = experiment: Nuclear translocation assay to identify activators of YAP/TAZ bioactivity, fibroblasts on fibronectin micro-islands; details: for Mechano-transduction Activation (% Increase): 20 uM, 2 hours, YAP/TAZ nucleus/cytoplasm ratio normalised to control and LPA; for Induction of mechano-transduction signaling (translocation of cytoplasmic YAP/TAZ into the nucleus), in words: over the vehicle DMSO
Protocol: Cellular localization of YAP can be regulated by the rigidity of the substrate or ECM that cells are attached to, or the degree to which cells can spread on a substrate. Thus in vitro models can be useful to engineer low states of YAP activity.
Briefly, primary human dermal fibroblasts were seeded on microprinted substrate islands (<1000 μm^2) of fibronectin and incubated overnight at 37° C., 5% CO2 in a cell culture incubator. Next, fibroblasts were treated with materials described in Table 1. After the treatment period of 2 hours, cells were fixed and stained: nuclei were stained with Hoechst dye and YAP/TAZ was stained with a mouse antibody to YAP/TAZ (Santa Cruz Biotechnology), followed by the secondary fluorescently tagged antibody (donkey anti-mouse AlexaFluor 488). Microscopic images were acquired and YAP/TAZ fluorescent signal measured in the cytoplasm and nucleus of each cell. The fluorescence intensity measured in the nucleus is divided by the one measured in the cytoplasm to obtain the YAP/TAZ ratio readout as described below Table 1.

procollagen-I = experiment: Procollagen type 1 C-peptide (PIP) EIA on media of dermal fibroblasts on soft hydrogel; details: for Procollagen: day 6; for Effect on procollagen-I synthesis in human dermal fibroblasts, in words: substrates mimicking the biomechanical properties of skin
Protocol: Since YAP activity is highly dependent on substrate rigidity it was necessary to develop and perform assays on substrates with tunable mechanical properties.
Primary human dermal fibroblasts (P3) are plated at 31,579 cells per cm2 into 24-well […] collagen coated hydrogel plates in 1 ml 2% fetal bovine serum in Dulbecco's Modified Eagles Media (DMEM) and maintained 24 hours in a cell culture incubator at 5% carbon dioxide. The cells were washed twice with Dulbecco's Phosphate Buffered Saline then 1 ml of DM EM supplemented with 0.6% fatty acid free bovine serum albumin. The cells were maintained for 24 hours in a cell culture incubator at 5% carbon dioxide.
Two hundred microliter of media was removed from each well. To each well were added 100 ul of 500 ug per ml ascorbic acid in DMEM supplemented with 0.6% fatty acid free bovine serum albumin. Test materials were diluted to 10X final concentration in DMEM supplemented with 0.6% fatty acid free bovine serum albumin or PBS supplemented with 0.1% fatty acid free bovine serum albumin and 100 ul dosed to duplicate wells. The cells/plates were incubated for 3 days at 37° C., 5% CO2 in a cell culture incubator. On day 3 the media was removed from the wells and 900u1 DMEM supplemented with 0.6% fatty acid free bovine serum albumin plus 50 ug/ml ascorbic acid. The treatments were added as described above. On day 6 after the start of treatment remove 100 ul of the media from each well for the determination of the level of procollagen.
The amount of procollagen in the media samples was determined using the Takara Bio Procollagen type 1 C-peptide (PIP) detection EIA assay. The assay was run following the manufacturer's instructions as following—100 ul of the reconstituted antibody-POD conjugate to the wells of the assay for the number required for the media samples and the standard curve. The procollagen standard solution was 2-fold serial diluted using sample diluent to generate a standard curve of 640, 320, 160, 80, 40, 20, 10 and 0 ng/ml procollagen. The media samples were diluted 1/20 with sample diluent. Twenty ul of the standard curve dilutions were added to the wells of the assay plate in duplicate. The 20 ul media dilutions in sample diluent were added to the wells of the assay plate in singlet. The plate was incubated for 3 hours at 37° C., washed 4 times with phosphate buffered saline wash buffer and tapped to remove all residual wash buffer. One hundred ul of substrate solution (TMBZ) was added to each well and incubate 15 minutes. One hundred ul of stop solution was added to each well, the plate shaken to mix and the optical density at 450 nm read in a plate reader. The amount of procollagen in the test samples was calculated from the standard curve values and corrected for the dilution factor and the volume in the well to generate the ng of procollagen in the samples. The amount of procollagen induced by the test materials was compared to the basal media.

[1] = system: CRABPII (cellular retinoic acid binding protein II); experiment: CRABPII gene expression by TaqMan real time PCR in dermal fibroblasts
Protocol: (§1) Primary human dermal fibroblasts (P3) are plated at 31,579 cells per cm^2 into 6-well 2 kPa hydrogel collagen coated plates in 2 ml 2% fetal bovine serum in Dulbecco's Modified Eagles Media (DMEM) and maintained 24 hours in a cell culture incubator at 5% carbon dioxide. The cells were washed twice with Dulbecco's Phosphate Buffered Saline DPBS) then 1 ml of DMEM supplemented with 0.6% fatty acid free bovine serum albumin (FAF-BSA). The cells were maintained for 24 hours in a cell culture incubator at 5% carbon dioxide. Four hundred ul of media was removed from each well of the plates. Two hundred ul of the YAP active treatments diluted at 10X the desired final concentration plus 1% DMSO were diluted in DMEM supplemented with 0.6% fatty acid free bovine serum albumin. The control wells were treated with two hundred ul of 1% DMSO were diluted in DMEM supplemented with 0.6% fatty acid free bovine serum albumin. Two hundred ul of water-soluble YAP actives diluted at 10X the desired final concentration diluted in DPBS+0.1% FAF-BSA. The controls wells were treated with 200 ul DPBS+0.1% FAF-BSA. The plates were incubated overnight at 37° C. at 5% CO2. In the AM the plates were dosed with the 220 ul of the water-soluble YAP actives in DPBS +0.1% FAF-BSA or the control well with 220 ul DPBS +0.1% FAF-BSA. After 6 hours the media was aspirate from the wells, the cells washed 2X with DPBS and the plate frozen at -80 °C until the RNA was isolated.
700 ul of RLT buffer plus beta-mercaptoethanol was added to each well immediately after removing the plate from the freezer. The plate was placed on an orbital shaker at 500 revolution per minute up for 15 minutes while the buffer thawed and extracted the cells. […] The RNA samples were quantitated on a NanoDrop 800 and quantity access on an Agilent Bio-analyzer. […] The cDNA samples were evaluated for the expression level of select markers using comparative Taqman analysis using 2 ul of the cDNA per reaction. […]
An independent experiment was conducted using cell culture and RNA isolation methods described in Example 2 to further elucidate the retinyl propionate+ORG synergy (as observed in Table 4) by analyzing a well-described marker of a retinoid activity CRABPII (cellular retinoic acid binding protein II). […] Then, 10 ng cDNA samples per reaction were evaluated for the expression level of CRABPII using primers and comparative TaqMan™ Gene Expression Assay and TaqMan™ Fast Advanced Master (FAM) Mix (purchased from Applied Biosystems™) and run in a ViiA™ 7 Real Time PCR System (from Applied Biosystems™). Percent increases in CRABPII expression was calculated by converting the log2fold-change to a percentage increase using the following formula: Percent increase=100*(2^log2FC)-100.

COL1A1 = experiment: mRNA gene expression in dermal fibroblasts on 2 kPa hydrogel (RNA-seq); details: vs. Vehicle
Protocol: as §1
(§2) The RNA was isolated using the Qiagen RNeasy mini kit following the manufacturer's instruction with the following modifications—
(§3) 700 ul of RLT buffer plus beta-mercaptoethanol was added to each well immediately after removing the plate from the freezer. The plate was placed on an orbital shaker at 500 revolution per minute up for 15 minutes while the buffer thawed and extracted the cells. The cell lysate was transfer to Qiashedders and pass the Qiashedder to disrupt the cells. The recovery lysate was mixed with an equal volume of 70% Ethanol, 30% water. The RNA was purified on the minicolumns including the DNase step to remove DNA contamination. The RNA samples were quantitated on a NanoDrop 800 and quantity access on an Agilent Bio-analyzer. An aliquot of the RNA samples was reverse transcribed in cDNA then diluted to 5 ng/ul of input RNA. The cDNA samples were evaluated for the expression level of select markers using comparative Taqman analysis using 2 ul of the cDNA per reaction. The level of RNA expression was compared using the delta delta Cycle threshold (ddCt) method. Aliquot of the RNAs were also submitted to Lexogen (Vienna, Austria) for RNA-seq analysis.
(§4) Shown in Table 5 is the average percent increase in mRNA expression for genes involved in extracellular matrix production following ORG treatment relative to the vehicle control, along with the Benjamini-Hochberg adjusted p-values (adj.p.value) calculated by converting the average log2fold-change (calculated using DESeq2) to a percentage increase using the following formula: Percent increase=100*(2^log2FC)-100.

COL3A1 = experiment: as above; details: vs. Vehicle
Protocol: as §1, §2, §3, §4

COL4A1 = experiment: as above; details: vs. Vehicle
Protocol: as §1, §2, §3, §4

COL5A1 = experiment: as above; details: vs. Vehicle
Protocol: as §1, §2, §3, §4

ELN = experiment: as above; details: vs. Vehicle
Protocol: as §1, §2, §3, §4

FBN1 = experiment: as above; details: vs. Vehicle
Protocol: as §1, §2, §3, §4

FN1 = experiment: as above; details: vs. Vehicle
Protocol: as §1, §2, §3, §4

HAS2 = experiment: as above; details: vs. Vehicle
Protocol: as §1, §2, §3, §4

[2] = Experiment 1, 50 μM, vehicle control 1933.3
[3] = Experiment 2, 50 μM, vehicle control 2240.5

Molecule | Mechano-transduction Activation (% Increase) (YAP/TAZ) | Induction of mechano-transduction signaling (translocation of cytoplasmic YAP/TAZ into the nucleus), in words (YAP/TAZ) | Procollagen (procollagen-I; [2]) | Procollagen (procollagen-I; [3]) | Effect on procollagen-I synthesis in human dermal fibroblasts, in words (procollagen-I) | further results
CCCCCCCCCCCCCCC(=O)OCC(O)CO (racemic) [1-Pentadecanoyl-rac-glycerol] | 25 +/− 26% | do not induce mechano-transduction |  |  |  | 
CCCCCCCCCCCCCCCCCC(=O)OCC(O)CO (racemic) [1-Stearoyl-rac-glycerol] | 6 +/− 7% | do not induce mechano-transduction |  |  |  | 
CCCCCCCC/C=C\CCCCCCCC(=O)OCC(O)CO (racemic) [1-oleoyl-rac-glycerol] | 17 +/− 10 ** % | significantly induces mechano-transduction signaling |  |  |  | 
CC(C)c1cc2c(cc1O)[C@@]1(C)CC[C@H](O)C(C)(C)[C@@H]1CC2 [Hinokiol] |  |  | 1946.1 ng/mL | 1843.5 ng/mL | do not exhibit such a pronounced effect | 
CCCCCCCC/C=C\CCCCCCCC(=O)OC[C@@H](O)COP(=O)([O-])O.[Na+] [LPA, Lysophosphatidic acid] | 100 +/− 1 ** % | induces mechano-transduction signaling |  |  |  | Procollagen (procollagen-I; Experiment 1, 30 μM, vehicle control 1933.3): 3532.6 ng/mL; Procollagen (procollagen-I; Experiment 2, 30 μM, vehicle control 2240.5): 3381.3 ng/mL
C=CCc1ccc(O)c(-c2cc(CC=C)ccc2O)c1 [Magnolol] |  |  |  | 2512.8 ng/mL | do not exhibit such a pronounced effect | 
CCCCCCCC/C=C\CCCCCCCC(=O)NCC(=O)O [Oleoyl Glycinate] |  |  | 2474.9 ng/mL |  | do not exhibit such a pronounced effect | 
CCC(=O)OC/C=C(C)/C=C/C=C(C)/C=C/C1=C(C)CCCC1(C)C [retinyl propionate] |  |  |  |  | do not exhibit such a pronounced effect | Procollagen (procollagen-I; Experiment 3, 10 μM, vehicle control 1301.9): 1452.0 ng/mL; Effect on CRABPII gene expression, in words [1]: robust increase in CRABPII gene expression; Percent Increase in CRABPII Gene Expression vs Vehicle ([1]; 10 μM): 138%
oleoyl-rac-glycerol [ORG (Monomuls ®)] |  |  | 3084.2 ng/mL | 3256.8 ng/mL | promotes the synthesis of procollagen-I | Procollagen (procollagen-I; Experiment 3, 50 μM, vehicle control 1301.9): 2275.4 ng/mL; COL1A1 mRNA expression, Percent Increase (COL1A1): 21.16%; COL3A1 mRNA expression, Percent Increase (COL3A1): 15.35%; COL4A1 mRNA expression, Percent Increase (COL4A1): 20.36%; COL5A1 mRNA expression, Percent Increase (COL5A1): 10.73%; ELN mRNA expression, Percent Increase (ELN): 18.49%; FBN1 mRNA expression, Percent Increase (FBN1): 12.36%; FN1 mRNA expression, Percent Increase (FN1): 15.49%; HAS2 mRNA expression, Percent Increase (HAS2): 164.75%; Effect on CRABPII gene expression, in words [1]: more modest increase; Percent Increase in CRABPII Gene Expression vs Vehicle ([1]; 50 μM): 54%
